{"source": "patent US20100305214A1", "about": "“Use of a Monoterpene to Increase Tissue Repair” (Aisa Therapeutics, priority 2007, published 2010)", "key": {"[1]": {"tested_on": "isoprenylation enzymes", "conditions": "cited from earlier work"}, "[2]": {"tested_on": "colon inflammation", "test": "Preventive anti-inflammatory effects in a rat colitis model (TNBS)", "type": "in vivo", "conditions": "for average lengths of the colons vs group TNBS/Control / microscopic score of the colons: 6 days after induction; for average macroscopic score of the colons (Mean ± ESM): colons removed 6 days after induction, n = 6; for rats average weights vs group TNBS/Control: J6", "procedure": "Average macroscopic and microscopic scores of the colons sampled 6 days after the induction of colon inflammation were compared.\nColon inflammation was induced by a unique rectal administration of a 2,4,6-trinitrobenzen-sulfonic acid solution (TNBS, Fluka, France). TNBS was dissolved in 40° alcohol at a concentration of 50 mg/ml. Animals were anaesthetised intraperitoneally by 2 mg/kg of Calmivet (Vetoquinol, Lure, France) and 50 mg/kg of Ketamine (Ketamine 1000, Virbac, Carros, France). 0.4 ml of the TNBS solution was administered rectally and the rats were maintained during at least 30 minutes to avoid the releasing of the TNBS.\nKruskal-Wallis test followed possibly by the Mann-Whitney test was used to compare the different studied variables of the treated groups by comparison with the groups “Control” and “TNBS/Control”. Significativity threshold was settled at P<0.05."}, "[3]": {"tested_on": "repaired extensor tendon, wound contraction, epithelialization", "conditions": "in vivo; cited from earlier work"}, "[4]": {"tested_on": "skin inflammation", "test": "Mouse chronic skin inflammation model (TPA)", "type": "in vivo", "conditions": "10 mg/kg/day topical, 10 days", "procedure": "100 μl of a TPA solution were applied daily on the dorsal surfaces of mice during seven days (from J4 to J10) at a concentration of 0.2 mg/ml.\nThe daily topical treatment begun 3 days before the induction of skin inflammation (=Ji) and was continued 7 days after the induction of skin inflammation (=J10).\nFrom J4 to J10, the assayed products were applied 30 minutes before the application of TPA on the same skin area.\nThe mice were anaesthetized by intraperitoneal injection of a mixture of Ketamine (Ketamine 1000, Virbac, Carros, France) and Xylazine (Rompun 2%, Bayer Healthcare, Kiel, Allemagne). (2/3-1/3 vol/vol) at a dosis of 8 ml/kg. Blood (1 ml) was punctured intracardiacally after the last treatment. Blood samples were stored at +4° C. during 20 to 30 minutes then centrifuged at 1500 g for 15 minutes. Serums were removed, freezed at −20° C. and stored at −80° C. until pro-inflammatory cytokines dosage.\nDorsal skin samples were removed, fixed and stored in formaldehyde (Rotr-Histofix 4%, Carl Roth, Karlsruhe, Allemagne) until histopathological analysis.\nKruskal-Wallis test followed possibly by the Mann-Whitney test was used to compare the different studied variables of the treated groups by comparison with the groups “Control” and “TPA+Control”. Significativity threshold was settled at P<0.05."}, "[5]": {"tested_on": "wound healing process", "test": "Healing after scarification of the skin in hairless Skh-1 mice", "conditions": "10 mg/kg/day topical in maize oil, 8 days", "quoted_text": "6 female mice hairless Skh-1 with an average weight of 20-25 g were used.\nEach mouse was submitted to a scarification of the skin on each flank.\nThe daily topical treatment begun 1 hour before the scarification and was continued 8 days after the scarification.\nDaily observations and photographs were performed in order to follow the healing process."}, "[6]": {"conditions": "at doses which may have clinical activity; cited from earlier work"}}, "data": [{"compound": "S-limonene [reference compound]", "values": [{"measurement": "inhibition of the isoprenylation enzymes", "setting": "[1]", "value": "weak inhibitors"}]}, {"compound": "C=C(C)[C@@H]1CC=C(C(=O)O)CC1", "note": "[perillic acid, reference compound]", "values": [{"measurement": "IC50 values, isoprenylation enzymes", "setting": "[1]", "value": "low mM range"}]}, {"compound": "CC(C)Cc1ccc([C@H](C)C(=O)O)cc1", "note": "[Ibuprofen, (S)-(+)-Ibuprofen, reference compound]", "values": [{"measurement": "average macroscopic scores of the colons vs groups TNBS/Control and TNBS/Limonene 100", "setting": "[2]; 50 mg/kg daily oral", "value": "significantly lower"}, {"measurement": "average lengths of the colons vs group TNBS/Control", "setting": "[2]; 50 mg/kg daily oral", "value": "significantly lower"}, {"measurement": "average macroscopic score of the colons (Mean ± ESM)", "setting": "[2]; 50 mg/kg daily oral", "value": "4.7 ± 2.7"}, {"measurement": "rats average weights vs group TNBS/Control", "setting": "[2]; Ibuprofen 50 mg/kg daily oral", "value": "not significantly different"}, {"measurement": "breaking strength of the repaired extensor tendon, wound contraction, and epithelialization", "setting": "[3]", "value": "reduce"}]}, {"compound": "C=C(C)[C@@H]1CC=C(CO)CC1", "note": "[Perillyl alcohol, (S)-4-Isopropenyl-1-cyclohexenylmethanol]", "values": [{"measurement": "average macroscopic score of skin inflammation vs group TPA+Limonene", "setting": "[4]", "value": "significantly lower"}, {"measurement": "average macroscopic scores of skin inflammation vs group TPA+control", "setting": "[4]", "value": "significantly lower"}, {"measurement": "average microscopic scores of skin inflammation vs group TPA+control", "setting": "[4]", "value": "significantly lower"}, {"measurement": "average serum level of IL-1β vs TPA+control group", "setting": "[4]", "value": "tendency to be significantly lower"}, {"measurement": "average serum level of IL-6 vs TPA+control group", "setting": "[4]", "value": "significantly lower"}, {"measurement": "average serum level of TNF-α vs TPA+control group", "setting": "[4]", "value": "significantly lower"}, {"measurement": "histopathological analysis of the skin samples", "setting": "[4]", "value": "skins were little inflammatory; showed non-specific inflammatory skin lesions without epidermis ulceration and with an inflammatory rarely marked"}, {"measurement": "Average serum levels of IL-1β (Mean ± ESM)", "setting": "[4]; TPA-treated mice", "value": "5.3 ± 1.7", "unit": "pg/mL"}, {"measurement": "Average serum levels of IL-6 (Mean ± ESM)", "setting": "[4]; TPA-treated mice", "value": "13.0 ± 3.8", "unit": "pg/mL"}, {"measurement": "Average serum levels of TNF-α (Mean ± ESM)", "setting": "[4]; TPA-treated mice", "value": "80.6 ± 24.7", "unit": "pg/mL"}, {"measurement": "IC50 values, isoprenylation enzymes", "setting": "[1]", "value": "low mM range"}, {"measurement": "wound healing process in comparison with corn oil alone", "setting": "[5]", "value": "much better results"}, {"measurement": "wound healing process in comparison with limonene", "setting": "[5]", "value": "better results"}]}, {"compound": "C=C(C)[C@H]1CC=C(C)CC1", "note": "[Limonene, (4R)-1-methyl-4-isopropenylcyclohex-1-ene]", "values": [{"measurement": "average macroscopic scores of the colons vs groups TNBS/Control and TNBS/Limonene 100", "setting": "[2]; 10 mg/kg daily oral", "value": "significantly lower"}, {"measurement": "average lengths of the colons vs group TNBS/Control", "setting": "[2]; 10 mg/kg daily oral", "value": "significantly lower"}, {"measurement": "microscopic score of the colons", "setting": "[2]; 10 mg/kg daily oral", "value": 2}, {"measurement": "average macroscopic score of the colons (Mean ± ESM)", "setting": "[2]; 10 mg/kg daily oral", "value": "6.5 ± 1.3"}, {"measurement": "average lengths of the colons vs group TNBS/Control", "setting": "[2]; 100 mg/kg daily oral", "value": "significantly lower"}, {"measurement": "microscopic score of the colons", "setting": "[2]; 100 mg/kg daily oral", "value": 4}, {"measurement": "average macroscopic score of the colons (Mean ± ESM)", "setting": "[2]; 100 mg/kg daily oral", "value": "10.7 ± 2.7"}, {"measurement": "rats average weights vs group TNBS/Control", "setting": "[2]; Limonene 10 mg/kg daily oral", "value": "not significantly different"}, {"measurement": "rats average weights vs group TNBS/Control", "setting": "[2]; Limonene 100 mg/kg daily oral", "value": "not significantly different"}, {"measurement": "circulating TNF-α level", "setting": "[2]; at a concentration five times inferior to the concentrations of Ibuprofen", "value": "decreased"}, {"measurement": "post-inflammatory tissue repair, compared with ibuprofen", "setting": "[2]; oral administration, colons sampled 6 days after induction", "value": "induced post-inflammatory tissue repair"}, {"measurement": "inhibition of the isoprenylation enzymes", "setting": "[1]", "value": "weak inhibitors"}, {"measurement": "tolerance in cancer patients", "setting": "[6]", "value": "well tolerated"}]}]}
